Data on 13 molecules can be found in patent US12570655B2, “Cysteine covalent modifiers of AKT1 and uses thereof” (Terremoto Biosciences, Inc., priority 2023, dated 2026).

Like-named read-outs stand apart in the source and are kept apart here.

What all share (format): cell-based
One assay concerns the target T1, AKT2 (Homo sapiens, UniProt P31751).
T1 construct: expressed in transfected cells; host or cells: HEK293
Briefly: Live cell AKT2 target engagement by NanoBRET competitive probe displacement. The conditions noted are these: HEK293 cells transfected with kinase-NanoLuciferase fusion, 2 h at 37° C. In a few lines:
(§1)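 Live-cell competitive tracer displacement in HEK293 expressing NanoLuciferase-tagged kinase. Compound and ATP-competitive tracer (~EC50) are co-incubated 2 h at 37 °C; BRET (E600/E460) gives IC50.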
In general terms: In BRET a luciferase serves as donor, and the signal depends on an acceptor being close.

A further assay concerns the target T2, AKT1 E17K (Homo sapiens, UniProt P31749, E17K).
T2 construct: expressed in transfected cells; host or cells: HEK293
Briefly: Live cell AKT1 E17K target engagement by NanoBRET competitive probe displacement. The conditions noted are these: HEK293 cells transfected with kinase-NanoLuciferase fusion, 2 h at 37° C. The gist of the method: as §1

A further assay addresses T3, AKT1 WT (Homo sapiens, UniProt P31749).
T3 construct: expressed in transfected cells; host or cells: HEK293
Briefly: Live cell AKT1 WT target engagement by NanoBRET competitive probe displacement. The conditions noted are these: HEK293 cells transfected with kinase-NanoLuciferase fusion, 2 h at 37° C. In a few lines: as §1

Assay [1] relates to LAPC4 prostate cancer cells. The assay is described as follows: Antiproliferative effects in LAPC4 cells (CellTiter Glo). The conditions noted are these: LAPC4 cells (AKT1 E17K allele), read-out: LAPC4 proliferation IC50. The gist of the method:
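Cells grown in IMDM supplemented with 12% FBS plus 1% P/S were treated for 72 h with DMSO-dissolved compounds. ATP-based luminescence was fitted to a log(inhibitor) versus response Hill model, giving IC50.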

T2 sequence (P31749 whole entry E17K): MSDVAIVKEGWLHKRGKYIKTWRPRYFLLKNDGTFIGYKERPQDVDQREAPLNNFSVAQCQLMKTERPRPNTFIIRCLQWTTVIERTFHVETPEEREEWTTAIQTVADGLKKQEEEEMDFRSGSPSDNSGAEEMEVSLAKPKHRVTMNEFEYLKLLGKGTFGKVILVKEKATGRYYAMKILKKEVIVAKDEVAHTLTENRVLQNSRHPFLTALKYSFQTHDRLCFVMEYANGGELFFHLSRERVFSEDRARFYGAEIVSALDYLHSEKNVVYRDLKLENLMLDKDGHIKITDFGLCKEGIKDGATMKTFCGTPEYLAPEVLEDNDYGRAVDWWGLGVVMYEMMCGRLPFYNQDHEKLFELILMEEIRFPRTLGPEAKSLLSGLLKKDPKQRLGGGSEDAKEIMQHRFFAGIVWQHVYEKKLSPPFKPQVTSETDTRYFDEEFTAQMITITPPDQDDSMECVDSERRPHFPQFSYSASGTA
T3 sequence (P31749 whole entry): as the sequence (P31749 whole entry E17K) above, with K17E counted along it
T1 sequence (P31751 whole entry): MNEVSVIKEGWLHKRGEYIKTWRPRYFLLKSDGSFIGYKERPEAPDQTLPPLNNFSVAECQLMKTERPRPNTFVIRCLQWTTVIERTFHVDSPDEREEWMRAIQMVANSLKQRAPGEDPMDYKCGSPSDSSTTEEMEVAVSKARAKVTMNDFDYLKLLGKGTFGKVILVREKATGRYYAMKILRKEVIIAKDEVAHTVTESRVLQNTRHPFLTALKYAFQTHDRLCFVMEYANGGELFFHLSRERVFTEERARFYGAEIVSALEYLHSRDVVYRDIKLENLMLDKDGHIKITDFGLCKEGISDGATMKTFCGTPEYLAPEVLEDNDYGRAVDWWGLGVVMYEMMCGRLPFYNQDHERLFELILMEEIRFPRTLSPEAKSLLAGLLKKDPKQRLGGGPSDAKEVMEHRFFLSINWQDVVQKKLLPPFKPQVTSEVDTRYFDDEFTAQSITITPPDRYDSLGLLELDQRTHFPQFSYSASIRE

For the molecule `C=CC(=O)N1CCCC(c2cn([C@H]3CCc4cc(-n5c(-c6cccnc6N)nc6ccc(-n7cccn7)nc65)ccc43)nn2)C1` (single isomer, unassigned) [Example 168, 1-((*)-3-(1-((S)-5-(2-(2-aminopyridin-3-yl)-5-(1H-pyrazol-1-yl)-3H-imidazo[4,5-b]pyridin-3-yl)-2,3-dihydro-1H-inden-1-yl)-1H-1,2,3-triazol-4-yl)piperidin-1-yl)prop-2-en-1-one], the IC50 came out at 369 nM at AKT2, 32.6 nM on AKT1 E17K, 571 nM at AKT1 WT and 858 nM in assay [1] (72 h).
As for `C=CC(=O)N1CCC(C(=O)N[C@H]2CCc3cc(-n4c(-c5cccnc5N)nc5ccc(-n6cccn6)nc54)ccc32)CC1` [Example 29, N-[(1S)-5-[2-(2-aminopyridin-3-yl)-5-(pyrazol-1-yl)imidazo[4,5-b]pyridin-3-yl]-2,3-dihydro-1H-inden-1-yl]-1-(prop-2-enoyl)piperidine-4-carboxamide], the IC50 on AKT2 was determined as 250 nM; at AKT1 E17K, 81.6 nM; on AKT1 WT it was 50.1 nM; in assay [1] (Homo sapiens, LAPC4, 72 h), 216 nM.
Regarding `C=CC(=O)N1CCC(N[C@@H]2c3ccc(-n4c(-c5cccnc5N)nc5ccc(-n6cccn6)nc54)cc3CC2OC)CC1` (single isomer, unassigned) [Example 162, 1-(4-(((1R,2*)-5-(2-(2-aminopyridin-3-yl)-5-(1H-pyrazol-1-yl)-3H-imidazo[4,5-b]pyridin-3-yl)-2-methoxy-2,3-dihydro-1H-inden-1-yl)amino)piperidin-1-yl)prop-2-en-1-one], the IC50 on AKT2 was determined as 5880 nM; on AKT1 E17K, 645 nM; on AKT1 WT it was 102 nM; in assay [1] (Homo sapiens, LAPC4, 72 h), 1600 nM.
For `C=CC(=O)N1CCC(N[C@H]2CCc3cc(-n4c(-c5cccnc5N)nc5cc(F)c(-n6cccn6)nc54)ccc32)CC1` [Example 313, 1-(4-{[(1S)-5-[2-(2-aminopyridin-3-yl)-6-fluoro-5-(pyrazol-1-yl)imidazo[4,5-b]pyridin-3-yl]-2,3-dihydro-1H-inden-1-yl]amino}piperidin-1-yl)prop-2-en-1-one] the same measures were 113 nM, 21.8 nM, 518 nM and 347 nM.
For `C=CC(=O)N1CCC(N[C@H]2CCc3cc(-n4c(-c5cccnc5N)nc5ccc(-n6cccn6)nc54)ccc32)CC12CCC2` (single isomer, unassigned) [Example 94, 1-((*)-8-(((S)-5-(2-(2-aminopyridin-3-yl)-5-(1H-pyrazol-1-yl)-3H-imidazo[4,5-b]pyridin-3-yl)-2,3-dihydro-1H-inden-1-yl)amino)-5-azaspiro[3.5]nonan-5-yl)prop-2-en-1-one], the IC50 is 2640 nM at AKT2, 652 nM on AKT1 E17K, 147 nM at AKT1 WT and 1170 nM in assay [1] (72 h).
As for `C=CC(=O)Nc1ccc(F)cc1C(=O)N[C@H]1CCc2cc(-n3c(-c4cccnc4N)nc4ccc(-n5cccn5)nc43)ccc21` [Example 20, N-[(1S)-5-[2-(2-aminopyridin-3-yl)-5-(pyrazol-1-yl)imidazo[4,5-b]pyridin-3-yl]-2,3-dihydro-1H-inden-1-yl]-5-fluoro-2-(prop-2-enamido)benzamide], the IC50 on AKT2 stood at 20.2 nM; on AKT1 E17K, 9.64 nM; at AKT1 WT, 7.5 nM; in assay [1] (Homo sapiens, LAPC4, 72 h), 18.3 nM.
Regarding `C=CC(=O)N1CCC(N[C@H]2CCc3cc(-n4c(-c5cccnc5N)nc5ccc(-n6nccn6)nc54)ccc32)C[C@H]1C` (single isomer, unassigned) [Example 262, 1-[(2R,4*)-4-{[(1S)-5-[2-(2-aminopyridin-3-yl)-5-(1,2,3-triazol-2-yl)imidazo[4,5-b]pyridin-3-yl]-2,3-dihydro-1H-inden-1-yl]amino}-2-methylpiperidin-1-yl]prop-2-en-1-one], the IC50 is 45.9 nM on AKT2, 29.6 nM at AKT1 E17K, 650 nM on AKT1 WT and 83.7 nM in assay [1] (72 h).
Take `C=CC(=O)N1CCC(N[C@@H]2CCc3cc(-n4c(-c5cccnc5N)nc5ccc(-n6cccn6)nc54)ccc32)CC1` [Example 149, 1-(4-{[(1R)-5-[2-(2-aminopyridin-3-yl)-5-(pyrazol-1-yl)imidazo[4,5-b]pyridin-3-yl]-2,3-dihydro-1H-inden-1-yl]amino}piperidin-1-yl)prop-2-en-1-one]: the IC50 at AKT2 was 189 nM; on AKT1 E17K, 60.8 nM; on AKT1 WT it was 23.5 nM; in assay [1] (Homo sapiens, LAPC4, 72 h) it was 109 nM.
Regarding `C=CC(=O)N1CCC(N[C@H]2CCc3cc(-n4c(-c5cccnc5N)nc5ccc(C6CC(F)(F)C6)nc54)ccc32)CC1` [Example 227, 1-(4-{[(1S)-5-[2-(2-aminopyridin-3-yl)-5-(3,3-difluorocyclobutyl)imidazo[4,5-b]pyridin-3-yl]-2,3-dihydro-1H-inden-1-yl]amino}piperidin-1-yl)prop-2-en-1-one], the IC50 was found to be 283 nM at AKT2; 39 nM at AKT1 E17K; 703 nM at AKT1 WT; 540 nM in assay [1] (Homo sapiens, LAPC4, 72 h).
`C=CC(=O)N1CCC(N[C@H]2CCc3cc(-n4c(-c5cccnc5N)nc5ccc(-n6cccn6)nc54)ccc32)C[C@@H]1C` (single isomer, unassigned) [Example 65, 1-((2S,4*)-4-(((S)-5-(2-(2-aminopyridin-3-yl)-5-(1H-pyrazol-1-yl)-3H-imidazo[4,5-b]pyridin-3-yl)-2,3-dihydro-1H-inden-1-yl)amino)-2-methylpiperidin-1-yl)prop-2-en-1-one]: the IC50 on AKT2 was found to be 397 nM; on AKT1 E17K it was 58.3 nM; at AKT1 WT, 29.6 nM; in assay [1] (72 h), 203 nM.
With `C=CC(=O)N1CCC(N(CCOC)[C@H]2CCc3cc(-n4c(-c5cccnc5N)nc5ccc(-n6cccn6)nc54)ccc32)CC1` [Example 74, 1-(4-{[(1S)-5-[2-(2-aminopyridin-3-yl)-5-(pyrazol-1-yl)imidazo[4,5-b]pyridin-3-yl]-2,3-dihydro-1H-inden-1-yl](2-methoxyethyl)amino}piperidin-1-yl)prop-2-en-1-one], the IC50 at AKT2 is 2940 nM; at AKT1 E17K, above 1000 nM; on AKT1 WT, 179 nM; in assay [1] (Homo sapiens, LAPC4, 72 h) it was 1630 nM.
On to `C=CC(=O)N1CCC(N[C@H]2CCc3cc(-n4c(-c5cccnc5N)nc5ccc(-n6ccc(Cl)n6)nc54)ccc32)CC1` [Example 252, 1-(4-{[(1S)-5-[2-(2-aminopyridin-3-yl)-5-(3-chloropyrazol-1-yl)imidazo[4,5-b]pyridin-3-yl]-2,3-dihydro-1H-inden-1-yl]amino}piperidin-1-yl)prop-2-en-1-one], for which the IC50 is 38.5 nM on AKT2; 10.4 nM on AKT1 E17K; 127 nM on AKT1 WT; 90 nM in assay [1] (Homo sapiens, LAPC4, 72 h).
In the same order, the values of `C=CC(=O)N1CCC(N[C@H]2CCc3cc(-n4c(-c5cccnc5N)nc5ccc(-n6ccc(OC)n6)nc54)ccc32)CC1` [Example 206, 1-(4-{[(1S)-5-[2-(2-aminopyridin-3-yl)-5-(3-methoxypyrazol-1-yl)imidazo[4,5-b]pyridin-3-yl]-2,3-dihydro-1H-inden-1-yl]amino}piperidin-1-yl)prop-2-en-1-one] are 24.8 nM, 7.65 nM, 80.5 nM and 62.7 nM.
